The values that follow come from patent US11141452B2, “Bifunctional compounds for relief of pain comprising an opioid receptor agonist moiety and a NK1 receptor antagonist moiety and methods for treating pain” (THE ARIZONA BOARD OF REGENTS ON BEHALF OF THE UNIVERSITY OF …, priority 2014, dated 2021).

As usually defined, the Ki is a measure of affinity in units of concentration, obtained from inhibition or displacement. A lower Ki goes with higher affinity. Usually IC50 stands for the concentration that inhibits the measured activity by half. Higher therefore signals weaker potency.

The target of one test is MOR. In words: Radioligand binding assay at μ opioid receptor. To be noted: for Log[IC50±] (μ): log IC50 ± error; for Ki^μ/Ki^δ: ratio of binding affinities MOR/DOR. How it is done:
(§1) Binding affinities of these ligands were measured on radioligand binding assays. […] ([43]).

The target of another test is T1, hNK1 (Homo sapiens, UniProt P25103).
T1 construct: expressed in transfected cells; host or cells: CHO
T1 sequence (P25103 whole entry): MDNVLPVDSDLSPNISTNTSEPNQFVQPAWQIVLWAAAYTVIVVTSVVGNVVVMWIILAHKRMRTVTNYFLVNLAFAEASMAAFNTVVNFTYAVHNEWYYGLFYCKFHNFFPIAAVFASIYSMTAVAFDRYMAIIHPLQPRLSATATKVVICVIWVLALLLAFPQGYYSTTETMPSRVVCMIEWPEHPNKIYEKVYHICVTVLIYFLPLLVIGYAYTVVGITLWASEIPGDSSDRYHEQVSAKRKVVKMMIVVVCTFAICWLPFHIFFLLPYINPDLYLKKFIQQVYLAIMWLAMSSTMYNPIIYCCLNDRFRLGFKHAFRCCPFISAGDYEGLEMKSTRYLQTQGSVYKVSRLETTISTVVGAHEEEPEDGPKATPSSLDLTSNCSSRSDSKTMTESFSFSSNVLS
The experiment in a line: hNK1/CHO cell membrane radioligand binding assay ([3H]SP). As to conditions: for Ki^hNK1/Ki^rNK1: ratio human/rat NK1; for Ki: Ki^hNK1 (nM), hNK1/CHO membranes, [3H]SP.

Another test concerns the target DOR (Homo sapiens, UniProt P41143). The experiment in a line: Radioligand binding assay at δ opioid receptor. As to conditions: for Ki: Ki^δ (nM). The method, then: as §1

Structures are written as SMILES. Where “and” joins values, the source holds several entries; their conditions need not be identical. Equal entries are not always repeated. Non-standard residues stand in square brackets, D forms with d. Residues, ends and D or L forms follow the SMILES beside them. *: point of attachment. NH(3,5-(CF3)2-benzyl) = FC(F)(F)c1cc(CN*)cc(C(F)(F)F)c1; Dmt = Cc1cc(O)cc(C)c1C[C@H](N)C(=O)O; NMeF = CN[C@@H](Cc1ccccc1)C(=O)O; Orn = NCCC[C@H](N)C(=O)O

Chain of DOR (P41143 whole entry): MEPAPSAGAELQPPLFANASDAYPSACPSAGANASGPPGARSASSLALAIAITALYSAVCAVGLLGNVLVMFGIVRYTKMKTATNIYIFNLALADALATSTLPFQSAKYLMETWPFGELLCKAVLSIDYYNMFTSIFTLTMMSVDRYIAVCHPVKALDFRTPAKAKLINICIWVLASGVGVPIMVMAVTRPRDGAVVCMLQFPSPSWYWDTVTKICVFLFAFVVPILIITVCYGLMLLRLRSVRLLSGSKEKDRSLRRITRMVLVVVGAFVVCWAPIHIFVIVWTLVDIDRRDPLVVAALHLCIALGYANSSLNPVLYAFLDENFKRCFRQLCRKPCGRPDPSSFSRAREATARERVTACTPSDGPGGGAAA

`CC(C)C[C@H](NC(=O)[C@@H]1CCCN1C(=O)[C@H](CCCCN)NC(=O)[C@H](Cc1ccccc1)N(C)C(=O)CNC(=O)[C@@H](C)NC(=O)[C@@H](N)Cc1ccc(O)cc1)C(=O)N[C@@H](Cc1c[nH]c2ccccc12)C(=O)NCc1cc(C(F)(F)F)cc(C(F)(F)F)c1` [AKG174] (H-Y[dA]G[NMeF]KPLW-{NH(3,5-(CF3)2-benzyl)}; N-terminus assumed): at MOR, affinity was put at a Ki of 8 nM and the “Log[IC50±] (μ)” value is reported as −7.81 ± 0.08.
On the same counts, the results for `CC(C)C[C@H](NC(=O)[C@@H]1CCCN1C(=O)[C@H](CCC(N)=O)NC(=O)[C@H](Cc1ccccc1)N(C)C(=O)CNC(=O)[C@@H](C)NC(=O)[C@@H](N)Cc1ccc(O)cc1)C(=O)N[C@@H](Cc1c[nH]c2ccccc12)C(=O)NCc1cc(C(F)(F)F)cc(C(F)(F)F)c1` [AKG129] are 7 nM and −7.84 ± 0.11.
In the case of `Cc1cc(O)cc(C)c1C[C@H](N)C(=O)N[C@H](C)C(=O)NCC(=O)N(C)[C@@H](Cc1ccccc1)C(=O)N[C@@H](CCC(N)=O)C(=O)N1CCC[C@H]1C(=O)N[C@@H](CC(C)C)C(=O)N[C@@H](Cc1c[nH]c2ccccc12)C(=O)NCc1cc(C(F)(F)F)cc(C(F)(F)F)c1` [AKG141], the “Ki^hNK1/Ki^rNK1” value at hNK1 is given as 1/10.
With `Cc1cc(O)cc(C)c1C[C@H](N)C(=O)N[C@H](C)C(=O)N(C)CC(=O)N[C@@H](Cc1ccccc1)C(=O)N1CCC[C@H]1C(=O)N[C@@H](CC(C)C)C(=O)N[C@@H](Cc1c[nH]c2ccccc12)C(=O)NCc1cc(C(F)(F)F)cc(C(F)(F)F)c1` [AKG180, H-Dmt-D-Ala-NMeGly-Phe-Pro-Leu-Trp-NH-Bn(3′,5′-(CF3)2)], the “Ki^hNK1/Ki^rNK1” value on hNK1 is 1/6.
As to `CC(C)C[C@H](NC(=O)[C@@H]1CCCN1C(=O)[C@@H](CCC(N)=O)NC(=O)[C@H](Cc1ccccc1)NC(=O)CNC(=O)[C@@H](C)NC(=O)[C@@H](N)Cc1ccc(O)cc1)C(=O)N[C@@H](Cc1c[nH]c2ccccc12)C(=O)NCc1cc(C(F)(F)F)cc(C(F)(F)F)c1` [AKG103], at MOR, the Ki is 120 nM and 116 nM; the “Log[IC50±] (μ)” value is on record as −6.57 ± 0.05. On DOR, the IC50 is 155 nM and affinity was put at a Ki of 72 nM. On hNK1, this molecule yielded a Ki of 2.1 nM.
In the case of `CSCC[C@H](NC(=O)[C@H](Cc1ccccc1)N(C)C(=O)CNC(=O)[C@@H](C)NC(=O)[C@@H](N)Cc1ccc(O)cc1)C(=O)N1CCC[C@H]1C(=O)N[C@@H](CC(C)C)C(=O)N[C@@H](Cc1c[nH]c2ccccc12)C(=O)NCc1cc(C(F)(F)F)cc(C(F)(F)F)c1` [AKG106], on hNK1, the “Ki^hNK1/Ki^rNK1” value was 1/7.
Still for that read-out and setting: for `CC(C)C[C@H](NC(=O)[C@@H]1CCCN1C(=O)[C@H](Cc1ccccc1)N(C)C(=O)[C@H](Cc1ccccc1)NC(=O)[C@@H]1CCCN1C(=O)[C@@H](N)Cc1ccc(O)cc1)C(=O)N[C@@H](Cc1c[nH]c2ccccc12)C(=O)NCc1cc(C(F)(F)F)cc(C(F)(F)F)c1` [AKG224, H-Tyr-Pro-Phe-NMePhe-Pro-Leu-Trp-NH-Bn(3′,5′-(CF3)2)] (H-YPF[NMeF]PLW-{NH(3,5-(CF3)2-benzyl)}) the value was 1/10; for `Cc1cc(O)cc(C)c1C[C@H](N)C(=O)N(C)[C@H](C)C(=O)NCC(=O)N(C)[C@@H](Cc1ccccc1)C(=O)N1CCC[C@H]1C(=O)N[C@@H](CC(C)C)C(=O)N[C@@H](Cc1c[nH]c2ccccc12)C(=O)NCc1cc(C(F)(F)F)cc(C(F)(F)F)c1` [AKG184, H-Dmt-D-NMeAla-Gly-NMePhe-Pro-Leu-Trp-NH-Bn(3′,5′-(CF3)2)], 1/40.
`Cc1cc(O)cc(C)c1C[C@H](N)C(=O)N[C@H](C)C(=O)N[C@@H](Cc1ccccc1)C(=O)NCC(=O)N[C@@H](Cc1ccc(O)cc1)C(=O)N1CCC[C@H]1C(=O)N[C@@H](CC(C)C)C(=O)N[C@@H](Cc1c[nH]c2ccccc12)C(=O)NCc1cc(C(F)(F)F)cc(C(F)(F)F)c1` [AKG118] (H-[Dmt][dA]FGYPLW-{NH(3,5-(CF3)2-benzyl)}): on MOR, the Ki was found to be 1 nM, the “Log[IC50±] (μ)” value was −8.65 ± 0.12 and the “Ki^μ/Ki^δ” value is recorded as 1/3. At hNK1, the “Ki^hNK1/Ki^rNK1” value is 1/11.
Consider `Cc1cc(O)cc(C)c1C[C@H](N)C(=O)N(C)[C@H](C)C(=O)N(C)CC(=O)N(C)[C@@H](Cc1ccccc1)C(=O)N1CCC[C@H]1C(=O)N[C@@H](CC(C)C)C(=O)N[C@@H](Cc1c[nH]c2ccccc12)C(=O)NCc1cc(C(F)(F)F)cc(C(F)(F)F)c1` [AKG185, H-Dmt-D-NMeAla-NMeGly-NMePhe-Pro-Leu-Trp-NH-Bn(3′,5′-(CF3)2)], for which the “Ki^hNK1/Ki^rNK1” value at hNK1 is on record as 1/21.
Same read-out and setting: as for `Cc1cc(O)cc(C)c1C[C@H](N)C(=O)N(C)[C@H](C)C(=O)N(C)CC(=O)N[C@@H](Cc1ccccc1)C(=O)N1CCC[C@H]1C(=O)N[C@@H](CC(C)C)C(=O)N[C@@H](Cc1c[nH]c2ccccc12)C(=O)NCc1cc(C(F)(F)F)cc(C(F)(F)F)c1` [AKG183, H-Dmt-D-NMeAla-NMeGly-Phe-Pro-Leu-Trp-NH-Bn(3′,5′-(CF3)2)], the figure is 1/7; as for `Cc1cc(O)cc(C)c1C[C@H](N)C(=O)N(C)[C@H](C)C(=O)NCC(=O)N[C@@H](Cc1ccccc1)C(=O)N1CCC[C@H]1C(=O)N[C@@H](CC(C)C)C(=O)N[C@@H](Cc1c[nH]c2ccccc12)C(=O)NCc1cc(C(F)(F)F)cc(C(F)(F)F)c1` [AKG181, H-Dmt-D-NMeAla-Gly-Phe-Pro-Leu-Trp-NH-Bn(3′,5′-(CF3)2)], 1/5.
With `CC(C)C[C@H](NC(=O)[C@@H]1CCCN1C(=O)[C@H](CCCN)NC(=O)[C@H](Cc1ccccc1)N(C)C(=O)CNC(=O)[C@@H](C)NC(=O)[C@@H](N)Cc1ccc(O)cc1)C(=O)N[C@@H](Cc1c[nH]c2ccccc12)C(=O)NCc1cc(C(F)(F)F)cc(C(F)(F)F)c1` [AKG173] (H-Y[dA]G[NMeF][Orn]PLW-{NH(3,5-(CF3)2-benzyl)}), on MOR, the Ki stood at 5 nM, the “Log[IC50±] (μ)” value was −7.95 ± 0.08 and the “Ki^μ/Ki^δ” value is recorded as 100/1. Moreover, on DOR, the IC50 was 501 nM, the “binding selectivity for DOR over MOR” value is listed as 100 times and the Ki turned out to be 0.05 nM. The same molecule gave a Ki on hNK1 of 15.5 nM.
For the molecule `Cc1cc(O)cc(C)c1C[C@H](N)C(=O)N[C@H](C)C(=O)NCC(=O)N(C)[C@@H](Cc1ccc(F)cc1)C(=O)N[C@@H](CCC(N)=O)C(=O)N1CCC[C@H]1C(=O)N[C@@H](CC(C)C)C(=O)N[C@@H](Cc1c[nH]c2ccccc12)C(=O)NCc1cc(C(F)(F)F)cc(C(F)(F)F)c1` [AKG144], on MOR, the affinity corresponds to a Ki of 0.5 nM and the “Log[IC50±] (μ)” value is on record as −8.94 ± 0.07. At DOR, this molecule gave a half-inhibitory concentration (IC50) of 0.437 nM and a Ki of 0.2 nM.
In the case of `CSCC[C@H](NC(=O)[C@H](Cc1ccccc1)N(C)C(=O)CNC(=O)[C@@H](C)NC(=O)[C@@H](N)Cc1c(C)cc(O)cc1C)C(=O)N1CCC[C@H]1C(=O)N[C@@H](CC(C)C)C(=O)N[C@@H](Cc1c[nH]c2ccccc12)C(=O)NCc1cc(C(F)(F)F)cc(C(F)(F)F)c1` [AKG107], at hNK1, the “Ki^hNK1/Ki^rNK1” value is on record as 1/7.
Consider `CC(C)C[C@H](NC(=O)[C@@H]1CCCN1C(=O)[C@H](CCC(N)=O)NC(=O)[C@H](Cc1ccc(F)cc1)NC(=O)CNC(=O)[C@@H](C)NC(=O)[C@@H](N)Cc1ccc(O)cc1)C(=O)N[C@@H](Cc1c[nH]c2ccccc12)C(=O)NCc1cc(C(F)(F)F)cc(C(F)(F)F)c1` [AKG142], for which, at MOR, the Ki is 8 nM and the “Log[IC50±] (μ)” value is −7.67 ± 0.07. Also, on DOR, the IC50 is 3.39 nM and affinity was put at a Ki of 2 nM.
